In patent US20230364104A1, “PHARMACEUTICAL COMBINATION FOR THE TREATMENT OF HUMAN HYPOCHOLINERGIC DISORDERS” (priority 2020, published 2023):
Like-named read-outs stand apart in the source and are kept apart here.

Columns and labels:
[1] = test system: myocardial tissue; conditions: acetylcholine 1 μM, cited from earlier work
[2] = oral pirenzepine 100-300 mg co-administered with donepezil, healthy volunteers
[3] = in vivo; cited from earlier work

SMILES	suppression of the effect of acetylcholine ([1]; antagonist 1 μM)	other results
C[N+]1(C)CCC(OC(=O)C(c2ccccc2)c2ccccc2)CC1.[I-] [4DAMP, 4-[(Diphenylacetyl)oxy]-1,1-dimethylpiperidin-1-ium iodide]		suppression of the effect of acetylcholine ([1]; antagonist 0.1 μM): did not suppress the effect of acetylcholine
CN1CCN(CC(=O)N2c3ccccc3C(=O)Nc3cccnc32)CC1 [pirenzepine, 11-[(4-methylpiperazin-1-yl)acetyl]-5,11-dihydro-6H-pyrido[2,3-b][1,4]benzodiazepin-6-one]	did not suppress the effect of acetylcholine	increase in the tolerated dose of donepezil [2]: enabling the safe increase in the dose of donepezil
O=C(O[C@H]1CN2CCC1CC2)N1CCc2ccccc2[C@@H]1c1ccccc1 [solifenacin]		effect on QTc [3]: increase in QTc
CN1[C@@H]2CC[C@H]1C[C@@H](OC(=O)C(CO)c1ccccc1)C2 (stereo partly drawn) [atropine]	completely abolished the effect of acetylcholine	
CCN(CC)CCCCC1CCN(CC(=O)N2c3ccccc3C(=O)Nc3cccnc32)CC1 [AQ-RA 741, 11-[[4-[4-(diethylamino)butyl]-1-piperidinyl]acetyl]-5,11-dihydro-6H-pyrido[2,3-b] [1,4]benzodiazepin-6-one]	partial suppression of the effect of acetylcholine	
